# Experimental data from article PMC2346451 (PLoS ONE, 2008).
# Tests used:
# [1] = no reference given; cited from earlier work
# [2] = test system: dorsal root ganglion neurons; experiment: Fura-2 calcium imaging of dorsal root ganglion neurons; format: cell-based, rat; conditions: 1 mM citral; freshly isolated neurons
# Excerpt: Dorsal root ganglion neurons from all spinal levels were removed from postnatal day 12 to 20 Sprague Dawley rats and the nerve roots trimmed. Calcium- and magnesium-free (CMF) Hank's solution contained (in mM): 136.9 sodium chloride, 5.4 potassium chloride, 0.34 dibasic sodium orthophosphate, 0.44 monopotassium phosphate, 5.6 glucose, 5 4-(2-hydroxyethyl)-1-piperazineethanesulfonic acid, 0.005% phenol red, pH 7.4. CMF Hank's was used throughout the isolation and enzymatic treatments. The isolated ganglia were treated for 20 minutes at 37°C with 20 U/ml of papain (Worthington Biochemical, Lakewood, NJ) and 5 mM cysteine. The ganglia were then transferred to CMF Hank's with 3 mg/ml collagenase (type I; Worthington) and 4 mg/ml dispase (neutral type II; Roche Applied Science, Indianapolis, IN) for 20 minutes at 37°C. […]
# Dorsal root ganglion neurons were loaded with 5 µM fura-2 AM and 0.02% pluronic acid in media at 37°C for 60 minutes. […] The MetaFluor imaging system (Universal Imaging Corporation) was used to record fluorescence at 340 and 380 nm excitation wavelengths. Background fluorescence, measured as the ratio 340/380 in a “cell-free” zone during the experiment, was subtracted from the data. […]
structure (smiles),measurement,setting,value
"CC(C)=CCCC(C)=CC=O [citral, 3,7-dimethyl-2,6-octadienal]",log P (oil/water) coefficient,[1],three
same,Neurons with increased internal calcium concentration among capsaicin-responsive neurons,[2],12 of 35
